Data: patent publication US8324246B2, “Indol carboxylic acid bispyridyl carboxamide derivatives, pharmaceutically acceptable salt thereof, preparation method and composition containing the same as an active ingredient” (Korea Research Institute of Chemical Technology, priority 2008, dated 2012)
Read-outs that look alike come from different tables or passages of the source.

Key:
[1] = target: T1, human gene recombinant 5-HT2c receptor expressed in CHO-K1 cell (Homo sapiens, UniProt P28335); experiment: Binding affinity to the serotonin 5-HT2c receptor ([3H]mesulergine)
T1 construct: purchased Euroscreen, Belgium; host or cells: CHO-K1
T1 sequence (P28335 33-458): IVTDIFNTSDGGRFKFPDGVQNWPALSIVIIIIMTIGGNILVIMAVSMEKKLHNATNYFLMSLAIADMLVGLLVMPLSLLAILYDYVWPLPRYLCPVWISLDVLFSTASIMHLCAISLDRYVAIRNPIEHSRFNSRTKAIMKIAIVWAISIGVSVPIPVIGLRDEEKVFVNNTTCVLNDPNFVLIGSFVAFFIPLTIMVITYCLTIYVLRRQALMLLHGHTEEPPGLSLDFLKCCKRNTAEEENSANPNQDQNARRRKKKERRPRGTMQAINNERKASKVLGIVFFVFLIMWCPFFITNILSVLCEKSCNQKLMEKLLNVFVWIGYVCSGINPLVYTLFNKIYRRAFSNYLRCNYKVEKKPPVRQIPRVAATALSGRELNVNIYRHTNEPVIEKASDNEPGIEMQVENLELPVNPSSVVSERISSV
Method: As a receptor, a human gene recombinant 5-HT2c receptor expressed in CHO—K1 cell was purchased from Euroscreen, Belgium and used in the experiment, and as a radioactive isotope, [3H]mesulergine (Amersham Biosciences, UK).
A final volume of 0.25 ml reaction mixture was prepared by adding 50 mM Tris-HCl buffer (pH 7.7) containing one of the compounds in Examples 1-29 or Comparative Examples 1-2, 1 nM of [3H]mesulergine, 5-HT2c receptor membranes (4 D/well), 0.1% ascorbic acid and 10 µM pargyline, and incubated at 37° C. for 30 minutes. After incubation, the reaction was terminated by the rapid filtration using an Inotech harvester (Inotech) through a Wallace GF/C glass fiber filter (Wallac, Finland) which was presoaked in 1% BSA, and then washed with ice-cold 50 mM Tris-HCl buffer. The filter was covered with MeltiLex, sealed in a sample bag followed by drying in the oven, and counted by MicroBeta Plus (Wallac). Non-specific binding was determined in the presence of […] Mianserin. Three repeating experiments were carried out with 7-8 concentrations of the compound in Examples 1-29 or the compound in comparative examples 1-2, run in duplicate tubes, and isotherms from the three assays were calculated by a nonlinear regression analysis (GraphPad Prism Program, San Diego, USA) to yield IC50 values.

[2] = target: T2, 5-HT1a (Homo sapiens, UniProt P08908); experiment: Receptor selectivity binding, 5-HT1a; conditions: Table 3
T2 sequence (P08908 1-422): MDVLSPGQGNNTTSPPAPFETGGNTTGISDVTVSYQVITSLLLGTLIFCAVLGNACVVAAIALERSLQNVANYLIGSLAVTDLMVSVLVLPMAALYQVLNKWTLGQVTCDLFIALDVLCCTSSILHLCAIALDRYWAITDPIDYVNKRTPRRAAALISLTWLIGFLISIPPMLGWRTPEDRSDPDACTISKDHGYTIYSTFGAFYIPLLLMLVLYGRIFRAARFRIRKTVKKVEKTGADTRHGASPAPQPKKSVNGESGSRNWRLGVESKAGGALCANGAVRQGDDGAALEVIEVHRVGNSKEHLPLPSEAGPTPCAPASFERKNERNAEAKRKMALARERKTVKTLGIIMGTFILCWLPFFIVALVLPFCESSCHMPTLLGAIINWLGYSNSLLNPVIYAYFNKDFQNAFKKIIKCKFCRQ
Method: (§1) For their high binding affinities for 5-HT2c, compounds in Examples 14 to 18, 20, and 22 or in Comparative Example 1 were used for the experiment with reaction mixtures. Except that CNS receptors such as 5-HT1a, 5-HT2a, 5-HT7, D2, D3 or D4 other than 5-HT2c were used as a receptor, IC50 values (nM) were measured in the same manner as in Experimental Example 1.

[3] = target: 5-HT6 (Homo sapiens, UniProt P50406); experiment: Receptor selectivity binding, 5-HT6; conditions: Table 3
Method: as §1

[4] = target: D3 (Homo sapiens, UniProt P35462); experiment: Receptor selectivity binding, D3; conditions: Table 3
Method: as §1

[5] = target: D2 (Homo sapiens, UniProt P14416); experiment: Receptor selectivity binding, D2; conditions: Table 3
Method: as §1

[6] = target: T3, D4 (Homo sapiens, UniProt P21917); experiment: Receptor selectivity binding, D4; conditions: Table 3
T3 sequence (P21917 1-419): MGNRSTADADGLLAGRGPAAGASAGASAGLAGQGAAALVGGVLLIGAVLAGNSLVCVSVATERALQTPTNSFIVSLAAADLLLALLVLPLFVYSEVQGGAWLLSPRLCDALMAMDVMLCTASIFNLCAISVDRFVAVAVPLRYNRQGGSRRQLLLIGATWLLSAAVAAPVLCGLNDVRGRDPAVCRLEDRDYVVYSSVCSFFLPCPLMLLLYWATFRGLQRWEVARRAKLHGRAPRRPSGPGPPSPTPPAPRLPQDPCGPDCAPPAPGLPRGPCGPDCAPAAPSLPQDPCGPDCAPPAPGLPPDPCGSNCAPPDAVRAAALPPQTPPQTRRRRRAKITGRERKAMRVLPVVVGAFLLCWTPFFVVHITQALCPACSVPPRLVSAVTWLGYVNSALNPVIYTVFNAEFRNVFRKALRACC
Method: as §1

[7] = target: 5-HT2a (Homo sapiens, UniProt P28223); experiment: Receptor selectivity binding, 5-HT2a; conditions: Table 3
Method: as §1

[8] = target: 5-HT7 (Homo sapiens, UniProt P34969); experiment: Receptor selectivity binding, 5-HT7; conditions: Table 3
Method: as §1

[9] = [3H]mesulergine 1 nM, 37° C. 30 minutes, Table 2, read-out: IC50

5-HT2a, sequence (P28223 whole entry, species assumed): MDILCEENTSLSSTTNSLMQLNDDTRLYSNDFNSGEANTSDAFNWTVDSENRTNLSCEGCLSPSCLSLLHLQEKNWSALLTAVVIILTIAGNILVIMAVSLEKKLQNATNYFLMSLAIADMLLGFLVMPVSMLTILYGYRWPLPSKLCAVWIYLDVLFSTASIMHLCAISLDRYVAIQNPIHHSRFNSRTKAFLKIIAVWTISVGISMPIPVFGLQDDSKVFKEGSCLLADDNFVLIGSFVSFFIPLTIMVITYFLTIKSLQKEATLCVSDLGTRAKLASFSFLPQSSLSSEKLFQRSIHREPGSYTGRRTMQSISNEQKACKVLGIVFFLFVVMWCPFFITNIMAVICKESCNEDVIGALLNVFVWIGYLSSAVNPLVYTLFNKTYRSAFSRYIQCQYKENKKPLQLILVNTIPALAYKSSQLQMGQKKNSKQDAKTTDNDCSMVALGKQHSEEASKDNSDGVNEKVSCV
5-HT6, sequence (P50406 whole entry, species assumed): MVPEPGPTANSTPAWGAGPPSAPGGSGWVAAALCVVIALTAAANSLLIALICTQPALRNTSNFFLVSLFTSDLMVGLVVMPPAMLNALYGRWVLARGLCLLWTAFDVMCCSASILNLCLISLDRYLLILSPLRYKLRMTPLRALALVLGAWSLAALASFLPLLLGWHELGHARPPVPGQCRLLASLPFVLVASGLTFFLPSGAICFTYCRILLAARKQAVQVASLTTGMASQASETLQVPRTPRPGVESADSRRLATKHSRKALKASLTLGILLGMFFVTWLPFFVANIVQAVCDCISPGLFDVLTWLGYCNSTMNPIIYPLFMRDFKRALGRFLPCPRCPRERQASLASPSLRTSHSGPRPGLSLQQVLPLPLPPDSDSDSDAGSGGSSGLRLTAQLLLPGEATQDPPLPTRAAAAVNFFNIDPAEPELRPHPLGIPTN
5-HT7, sequence (P34969 whole entry, species assumed): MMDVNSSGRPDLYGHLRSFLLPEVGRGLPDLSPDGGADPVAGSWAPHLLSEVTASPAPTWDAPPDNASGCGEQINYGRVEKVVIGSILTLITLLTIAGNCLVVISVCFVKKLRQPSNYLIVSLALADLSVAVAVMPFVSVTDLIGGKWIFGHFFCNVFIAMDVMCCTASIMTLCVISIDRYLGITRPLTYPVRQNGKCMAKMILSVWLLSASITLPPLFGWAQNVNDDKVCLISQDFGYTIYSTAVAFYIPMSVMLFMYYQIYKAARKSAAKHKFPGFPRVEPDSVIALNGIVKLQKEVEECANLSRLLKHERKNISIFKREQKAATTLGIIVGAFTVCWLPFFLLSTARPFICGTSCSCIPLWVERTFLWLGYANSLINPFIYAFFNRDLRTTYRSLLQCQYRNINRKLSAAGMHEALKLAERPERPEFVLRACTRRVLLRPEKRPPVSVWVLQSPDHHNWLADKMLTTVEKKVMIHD
D2, sequence (P14416 whole entry): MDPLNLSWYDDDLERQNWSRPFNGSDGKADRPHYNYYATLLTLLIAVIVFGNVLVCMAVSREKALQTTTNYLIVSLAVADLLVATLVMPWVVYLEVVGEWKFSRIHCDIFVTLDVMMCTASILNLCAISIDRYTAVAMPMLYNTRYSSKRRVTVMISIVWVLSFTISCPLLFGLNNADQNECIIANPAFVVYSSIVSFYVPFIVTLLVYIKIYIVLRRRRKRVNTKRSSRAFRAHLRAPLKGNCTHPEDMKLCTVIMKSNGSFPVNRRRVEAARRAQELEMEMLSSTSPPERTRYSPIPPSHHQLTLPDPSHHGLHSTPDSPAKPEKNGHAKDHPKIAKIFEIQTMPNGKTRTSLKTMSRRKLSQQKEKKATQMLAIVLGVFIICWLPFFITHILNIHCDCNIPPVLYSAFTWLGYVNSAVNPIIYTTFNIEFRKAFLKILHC
D3, sequence (P35462 whole entry): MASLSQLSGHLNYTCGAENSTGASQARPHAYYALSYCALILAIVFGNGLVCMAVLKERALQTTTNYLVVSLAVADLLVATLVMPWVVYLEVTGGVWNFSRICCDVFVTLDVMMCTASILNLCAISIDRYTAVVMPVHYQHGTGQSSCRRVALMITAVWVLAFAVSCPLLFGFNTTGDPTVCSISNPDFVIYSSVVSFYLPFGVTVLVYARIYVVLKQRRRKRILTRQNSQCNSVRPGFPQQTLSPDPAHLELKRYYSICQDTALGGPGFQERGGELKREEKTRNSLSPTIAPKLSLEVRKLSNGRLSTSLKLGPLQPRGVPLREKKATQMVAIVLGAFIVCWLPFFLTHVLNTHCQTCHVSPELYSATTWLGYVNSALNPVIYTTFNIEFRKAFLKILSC

Question: For “1H-indole-2-carboxylic acid[6-(2-methyl-pyridine-3-yloxy)-pyridine-3-yl]-amide [Example 5]”, which IC50 [1, 9] is on record?
Answer: 59 nM

Question: Which IC50 [2] does the source give for Cc1cc2c(cc1C(F)(F)F)N(C(=O)Nc1ccc(Oc3cccnc3C)nc1)CC2 [Comparative Example 1, SB-243213, reference compound] here?
Answer: > 1000 nM

Question: And the IC50 [3]?
Answer: 667 nM

Question: What about the IC50 [4] of the same molecule?
Answer: > 1000 nM

Question: And the IC50 [5]?
Answer: > 1000 nM

Question: And the IC50 [6]?
Answer: > 10000 nM

Question: And the IC50 [7]?
Answer: 32.4 nM

Question: And the IC50 [8]?
Answer: > 1000 nM

Question: And the IC50 ([1]; Table 3, read-out: IC50 5-HT2c)?
Answer: 0.7 nM

Question: And the IC50 [1, 9]?
Answer: 0.7 nM

Question: Which melting point does the source give for Cc1cc2c(cc1C(F)(F)F)N(C(=O)Nc1ccc(OCc3ccccn3)nc1)CC2 [Comparative Example 2, SB-247853] here?
Answer: 220 to 222 °C

Question: And the IC50 [1, 9]?
Answer: 1.3 nM

Question: With Cc1ncccc1Oc1ccc(NS(=O)(=O)c2coc3ccccc23)cn1 [Example 1, benzofuran-3-sulfonic acid[6-(2-methyl-pyridine-3-yloxy)-pyridine-3-yl]-amide] as the molecule, how does the melting point read?
Answer: 128 to 129 °C

Question: What about the IC50 [1, 9] of the same molecule?
Answer: 321 nM

Question: Which melting point does the source give for Cc1ncccc1Oc1ccc(NS(=O)(=O)c2csc3ccccc23)cn1 [Example 2, benzo[b]thiophene-3-sulfonic acid[6-(2-methyl-pyridine-3-yloxy)-pyridine-3-yl]-amide] here?
Answer: 93 to 95 °C

Question: What about the IC50 [1, 9] of the same molecule?
Answer: 572 nM

Question: For Cc1ncccc1Oc1ccc(NC(=O)c2coc3ccccc23)cn1 [Example 3, benzofuran-3-carboxylic acid[6-(2-methyl-pyridine-3-yloxy)-pyridine-3-yl]-amide], which melting point is on record?
Answer: 52 to 55 °C

Question: And the IC50 [1, 9]?
Answer: 167 nM

Question: Which melting point does the source give for Cc1ncccc1Oc1ccc(NC(=O)c2csc3ccccc23)cn1 [Example 4, benzo[b]thiophene-3-carboxylic acid[6-(2-methyl-pyridine-3-yloxy)-pyridine-3-yl]-amide] here?
Answer: 81 to 83 °C

Question: And the IC50 [1, 9]?
Answer: 50 nM

Question: Which results are given for Cc1ncccc1Oc1ccc(NC(=O)c2c[nH]c3ccccc23)cn1 [Example 6, 1H-indole-3-carboxylic acid[6-(2-methyl-pyridine-3-yloxy)-pyridine-3-yl]-amide]?
Answer: melting point: 108 to 110 °C; IC50 [1, 9]: 67 nM

Question: For Cc1ncccc1Oc1ccc(NC(=O)c2nc3ccccc3[nH]2)cn1 [Example 7, 1H-benzoimidazole-2-carboxylic acid[6-(2-methyl-pyridine-3-yloxy)-pyridine-3-yl]-amide], which melting point is on record?
Answer: 191 to 193 °C

Question: What about the IC50 [1, 9] of the same molecule?
Answer: > 10000 nM

Question: Which melting point does the source give for Cc1ncccc1Oc1ccc(NC(=O)c2ccc3ccccc3c2)cn1 [Example 8, naphthalene-2-carboxylic acid[6-(2-methyl-pyridine-3-yloxy)-pyridine-3-yl]-amide] here?
Answer: 156 to 158 °C

Question: What about the IC50 [1, 9] of the same molecule?
Answer: 302 nM

Question: With Cc1ncccc1Oc1ccc(NCc2c[nH]c3ccccc23)cn1 [Example 9, (1H-indole-3-ylmethyl)-[6-(2-methyl-pyridine-3-yloxy)-pyridine-3-yl]-amine] as the molecule, how does the IC50 [1, 9] read?
Answer: > 10000 nM

Question: With Cc1ncccc1Oc1ccc(NC(=S)c2c[nH]c3ccccc23)cn1 [Example 10] as the molecule, how does the IC50 [1, 9] read?
Answer: 23 nM

Question: For Cc1ncccc1Oc1ccc(NC(=O)c2cn(C)c3ccccc23)cn1 [Example 11, 1-methyl-1H-indole-3-carboxylid acid[6-(2-methyl-pyridine-3-yloxy)-pyridine-3-yl]-amide], which IC50 [1, 9] is on record?
Answer: 474 nM

Question: For Cc1ncccc1Oc1ccc(N(C)C(=O)c2c[nH]c3ccccc23)cn1 [Example 12, 1H-indole-3-carboxylic acid methyl-[6-(2-methyl-pyridine-3-yloxy)-pyridine-3-yl]-amide], which IC50 [1, 9] is on record?
Answer: 9440 nM

Question: With Cc1ncccc1Oc1ccc(N(C)C(=O)c2cn(C)c3ccccc23)cn1 [Example 13, 1-methyl-1H-indole-3-carboxylic acid methyl-[6-(2-methyl-pyridine-3-yloxy)-pyridine-3-yl]-amide] as the molecule, how does the IC50 [1, 9] read?
Answer: 6370 nM

Question: What does the source list for Cc1ccc2[nH]cc(C(=O)Nc3ccc(Oc4cccnc4C)nc3)c2c1 [Example 14, 5-methyl-1H-indole-3-carboxylic acid[6-(2-methyl-pyridine-3-yloxy)-pyridine-3-yl]-amide]?
Answer: IC50 [2]: > 10000 nM; IC50 [3]: > 10000 nM; IC50 [4]: > 10000 nM; IC50 [5]: > 10000 nM; IC50 [6]: > 10000 nM; IC50 [7]: > 1000 nM; IC50 [8]: > 10000 nM; IC50 ([1]; Table 3, read-out: IC50 5-HT2c): 4.5 nM; IC50 [1, 9]: 4.5 nM

Question: Which IC50 [1, 9] does the source give for O=C(Nc1ccc(Oc2cncnc2)nc1)c1c[nH]c2ccccc12 [Example 19, 1H-indole-3-carboxylic acid[6-(pyrimidin-5-yloxy)-pyridine-3-yl]-amide] here?
Answer: 50 nM

Question: With Cc1ccc(Oc2ccc(NC(=O)c3c[nH]c4ccccc34)cn2)cn1 [Example 21, 1H-indole-3-carboxylic acid[6-(6-methyl-pyridine-3-yloxy)-pyridine-3-yl]-amide] as the molecule, how does the IC50 [1, 9] read?
Answer: 2250 nM

Question: With O=C(Nc1ccc(Oc2cccnc2Br)nc1)c1c[nH]c2ccccc12 [Example 23, 1H-indole-3-carboxylic acid[6-(2-bromo-pyridine-3-yloxy)-pyridine-3-yl]-amide] as the molecule, how does the IC50 [1, 9] read?
Answer: 106 nM

Question: For O=C(Nc1ccc(Oc2cccnc2)nc1)c1c[nH]c2ccccc12 [Example 24, 1H-indole-3-carboxylic acid[6-(pyridine-3-yloxy)-pyridine-3-yl]-amide], which IC50 [1, 9] is on record?
Answer: 1.6 nM

Question: With O=C(Nc1ccc(Oc2ccccc2)nc1)c1c[nH]c2ccccc12 [Example 25, 1H-indole-3-carboxylic acid(6-phenoxy-pyridine-3-yl)-amide] as the molecule, how does the IC50 [1, 9] read?
Answer: 542 nM

Question: For O=C(Nc1cccnc1)c1c[nH]c2ccccc12 [Example 26, 1H-indole-3-carboxylic acid pyridine-3-ylamide], which IC50 [1, 9] is on record?
Answer: > 1000 nM

Question: For O=C(Nc1ccc(-c2cccnc2)cc1)c1c[nH]c2ccccc12 [Example 27, 1H-indole-3-carboxylic acid (4-pyridine-3-yl-phenyl)-amide], which IC50 [1, 9] is on record?
Answer: 214 nM

Question: With Cc1ccc2c(C(=O)Nc3ccc(Oc4cccnc4Cl)nc3)c[nH]c2c1 [Example 28, 6-methyl-1H-indole-3-carboxylic acid[6-(2-chloro-pyridine-3-yloxy)-pyridine-3-yl]-amide] as the molecule, how does the IC50 [1, 9] read?
Answer: 7 nM

Question: Which IC50 [1, 9] does the source give for COc1nc(OC)nc(Oc2ccc(NC(=O)c3c[nH]c4ccccc34)cc2)n1 [Example 29, 1H-indole-3-carboxylic acid[4-(4,6-dimethoxy-[1,3,5]triazine-2-ylxoxy)-phenyl]-amide] here?
Answer: > 10000 nM
